Assay results reported in PMC4095795 (ChemMedChem, 2014).

Assays:
[1] = biological target: T1, Recombinant cathepsin K (human) (Homo sapiens, UniProt P43235); conditions: read-out: IC50 against purified human cathepsin K; parent inhibitors; identical within error under light vs. dark; cathepsin K 2 nM, Z-Gly-Pro-Arg-AMC 100 μM
T1 sequence (P43235 115-329): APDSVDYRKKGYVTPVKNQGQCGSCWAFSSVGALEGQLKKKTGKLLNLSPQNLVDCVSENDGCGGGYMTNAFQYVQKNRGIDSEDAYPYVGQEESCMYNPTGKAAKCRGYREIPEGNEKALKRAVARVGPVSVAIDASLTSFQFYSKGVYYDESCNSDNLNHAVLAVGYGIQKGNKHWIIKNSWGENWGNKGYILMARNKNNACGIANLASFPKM

[2] = biological target: T2, cathepsin K (Mus musculus, UniProt P55097); assay: Live cell cathepsin K activity staining in osteoclasts
T2 sequence (P55097 115-329): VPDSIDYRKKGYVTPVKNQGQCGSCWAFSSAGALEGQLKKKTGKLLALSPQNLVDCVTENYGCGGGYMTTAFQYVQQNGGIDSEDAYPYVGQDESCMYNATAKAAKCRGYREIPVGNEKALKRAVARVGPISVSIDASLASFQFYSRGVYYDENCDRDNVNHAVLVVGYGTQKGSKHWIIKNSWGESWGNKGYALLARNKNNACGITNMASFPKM

[3] = tested on: cathepsin K; conditions: cited from earlier work
[4] = tested on: purified cathepsin K; conditions: read-out: IC50 against purified cathepsin K; literature value; cited from earlier work
[5] = cited from earlier work
[6] = longer than 2; cited from earlier work
[7] = tested on: bone marrow macrophages (BMMs); assay: Cell viability, MTT assay, BMM cells; conditions: dark or irradiated, 24 h, tested 1 nM–100 μM
[8] = tested on: PC3 prostate carcinoma cells; assay: Cell viability, MTT assay, PC3 cells; conditions: PC-3 cells, dark or irradiated, 24 h, tested 1 nM–100 μM

maximum inhibition of Z-LR-4MβNA hydrolysis ([2]; 4 under light conditions)	reduction of hydrolysis of Z-LR-4MβNA ([2]; 10–1000 nM, dose dependent, with CA074Me 1 μM)	Structure (SMILES)	IC50 [1]	inhibition of cathepsin K activity in live cell assays [3]	IC50 [4]	plasma stability relative to 2 [5]	half-life in vivo relative to 2 [6]	concentrations with no effects on viability / well tolerated (MTT) [7]	effect on Z-LR-4MβNA hydrolysis at 1000 nM ([2]; 1000 nM, with CA074Me 1 μM)	difference in inhibition between light and dark ([2]; Z-LR-4MβNA, with CA074Me 1 μM)	concentrations with no effects on viability / well tolerated (MTT) [8]
50%	up to 50%	CC(C)CC(NC(=O)OCc1ccccc1)C(=O)NCC#N (stereo not drawn) [Compound 2, Cbz-Leu-NHCH2CN, reference compound]	36 nM	inhibit cathepsin K activity in live cell assays	35 nM	–	–	–	–	–	–
–	–	CC(C)CC(NC(=O)OCc1ccccc1)C(=O)NC(C#N)COCc1ccccc1 (stereo not drawn) [Compound 3, Cbz-Leu-Ser(OBn)-CN]	28 nM	–	9 nM	longer plasma stability	roughly 10 times	–	–	–	–
–	–	CC#N.CC#N.F[P-](F)(F)(F)(F)F.F[P-](F)(F)(F)(F)F.[Ru+2].c1ccc(-c2ccccn2)nc1.c1ccc(-c2ccccn2)nc1 [reference compound]	–	–	–	–	–	up to 10 μM	slight reduction	no difference in inhibition between light and dark experiments	up to 10 μM
